The numbers were not newly measured in patent publication US9968093B1, “Development and manufacturing process of powdered additive for its use in coatings or substrates to repel, reduce and control insects” (priority 2016, dated 2018), which cites them from elsewhere.

Entries after “also recorded” stand apart in the source; their conditions may differ. Where two headings read alike, the source gives them in different places.

For data set [1] the following is noted: for Toxicity: toxicity in words.
For data set [2] the following is noted: for Time to decompose (Mean life): aqueous medium; for Stability in aqueous medium, in words: pH as stated in the value.

Consider `CCOP(=S)(OCC)Oc1ccc2c(C)c(Cl)c(=O)oc2c1` [Coumaphos], for which the Toxicity entry in data set [1] is “Toxic”.

As to `OB(O)O` [Boric acid], in data set [1], the “Toxicity (group)” value is “Group II” and the Toxicity entry is listed as “Mildly toxic”.

As to `CC1(C)C(C=C(Cl)Cl)C1C(=O)OC(C#N)c1cccc(Oc2ccccc2)c1` (stereo not shown) [Cypermethrin], the “Time to decompose (Mean life)” value in data set [2] (pH 9) is given as 7 days.

`CC1(C)[C@H](C(=O)O[C@H](C#N)c2cccc(Oc3ccccc3)c2)[C@@H]1C=C(Br)Br` [Deltamethrin]: the “Time to decompose (Mean life)” value in data set [2] (pH 7) was 0.33 days. Also, the “Stability in aqueous medium, in words” value in data set [2] is given as “more stable in medium acid solutions”.

For the compound `CCOP(=S)(OCC)Oc1nc(Cl)c(Cl)cc1Cl` [Chlorpyrifos], the “Time to decompose (Mean life)” value in data set [2] (pH 10) was 7 days. For the same compound, the “Stability in aqueous medium, in words” value in data set [2] is “stable in neutral and lightly”.

On to `CC1(C)C(C=C(Cl)Cl)C1C(=O)OCc1cccc(Oc2ccccc2)c1` (stereo not shown) [Permethrin], for which, in data set [2], the “Stability in aqueous medium, in words” value is “Stable at pH between 5 and 6”.

For the compound `O=C(NC(=O)c1c(F)cccc1F)Nc1ccc(Cl)cc1` [Diflubenzuron], the “Stability in aqueous medium, in words” value in data set [2] was “Stable in pH between 5 and 7; also recorded: Hydrolyzed at pH 9”.

As to `CCOC(=O)CC(SP(=S)(OC)OC)C(=O)OCC` (stereo not shown) [Malathion], the “Stability in aqueous medium, in words” value in data set [2] is reported as “Quickly hydrolyzed at pHs over 7. The optimal pH”.

Take `CCN(CC)c1nc(C)cc(OP(=S)(OC)OC)n1` [Methyl pirimiphos]: the figures for the “Time to decompose (Mean life)” value in data set [2] (pH 5) and in data set [2] (pH 8) were 7 days and 5 days, respectively.

For `CC(COc1ccc(Oc2ccccc2)cc1)Oc1ccccn1` (stereo not shown) [Pyriproxyfen], the “Stability in aqueous medium, in words” value in data set [2] is “Stable in a pH range between 4 and 9”.

Consider `CNC(=O)Oc1cccc2c1OC(C)(C)C2` [Carbofuran], for which, in data set [1], the “Toxicity (group)” value is given as “Group II” and the Toxicity entry was “Mildly toxic”.

Regarding `CCOP(=S)(OCC)Oc1cc(C)nc(C(C)C)n1` [Diazinon], the entries for the “Time to decompose (Mean life)” value in data set [2] (pH 5), in data set [2] (pH 7.5) and in data set [2] (pH 9) were 31 days, 185 days and 136 days, respectively.

For the compound `C=CCC1=C(C)C(OC(=O)C2C(C=C(C)C)C2(C)C)CC1=O` [D-allethrin], the figures for the “Time to decompose (Mean life)” value in data set [2] (pH 7) and in data set [2] (pH 9) were 500 days and “(4.3 days)”, respectively. Further, in data set [2], the “Stability in aqueous medium, in words” value is “Stable at pH 5 after 31 days”.
